# Several values for one entry are separate records, joined by “and”; a condition that tells them apart may be missing. Identical values can stand only once.
# Test system: BDF1 mice, Adenocarcinoma 755 s.c., tumor weight T/C
# Assay: NCI In Vivo Anticancer Drug Screen. Data for tumor model Adenocarcinoma 755 (subcutaneous) in B6D2F1 (BDF1) mice
# Details: endpoint: mean tumor weight, higher = larger tumour
# Summary of the method: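 Compound activity was tested in mice carrying transplanted tumors. Survival or tumor size was measured, and each value is the treated-group measurement divided by that of the vehicle-treated control group (T/C).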
# [1] = dose: 25.0 mg/kg/injection, schedule: Q01DX011 (ip), vehicle: methylcellulose (MC)
# [2] = dose: 75.0 mg/kg/injection, schedule: Q01DX011 (ip), vehicle: methylcellulose (MC)
# [3] = dose: 125.0 mg/kg/injection, schedule: Q01DX011 (ip), vehicle: other
# [4] = dose: 15.0 mg/kg/injection, schedule: Q01DX011 (ip), vehicle: saline
structure (smiles),measurement,setting,value
Cc1ccc(C(=O)[O][Hg][CH2]C2COC([CH2][Hg][O]C(=O)c3ccc(C)cc3)CO2)cc1 (centres undefined),T/C,"dose: 6.25 mg/kg/injection, schedule: Q01DX011 (ip), vehicle: methylcellulose (MC)",101 % of control
same,T/C,[1],61 % of control
same,T/C,"dose: 50.0 mg/kg/injection, schedule: Q01DX011 (ip), vehicle: methylcellulose (MC)",38 % of control
Nc1nc(SCc2ccc(Cl)cc2)c2ncn(C3OC(CO)C(O)C3O)c2n1 (centres undefined),T/C,"dose: 37.5 mg/kg/injection, schedule: Q01DX011 (ip), vehicle: methylcellulose (MC)",6 % of control
same,T/C,[2],1 % of control
CCCCSc1ncnc2nc[nH]c12,T/C,"dose: 0.25 mg/kg/injection, schedule: Q01DX011 (ip), vehicle: carboxymethylcellulose (CMC)",119 % of control
same,T/C,"dose: 1.0 mg/kg/injection, schedule: Q01DX011 (ip), vehicle: carboxymethylcellulose (CMC)",121 % of control
same,T/C,"dose: 4.0 mg/kg/injection, schedule: Q01DX011 (ip), vehicle: carboxymethylcellulose (CMC)",62 % of control
same,T/C,"dose: 15.0 mg/kg/injection, schedule: Q01DX011 (ip), vehicle: carboxymethylcellulose (CMC)",4 % of control and 9 % of control
same,T/C,"dose: 62.0 mg/kg/injection, schedule: Q01DX011 (ip), vehicle: carboxymethylcellulose (CMC)",4 % of control
CCCCN(C)N=Nc1ccc(C(=O)OCC)cc1,T/C,[3],37 % of control
same,T/C,"dose: 200.0 mg/kg/injection, schedule: Q01DX011 (ip), vehicle: other",31 % of control
Cn1c(N)c(C(=O)CCl)c(=O)n(C)c1=O,T/C,"dose: 30.0 mg/kg/injection, schedule: Q01DX011 (ip), vehicle: carboxymethylcellulose (CMC)",66 % of control
CC(=O)OCC(=O)[C@@]1(O)CC[C@H]2[C@@H]3CCC4=CC(=O)C=C[C@]4(C)[C@H]3C(=O)C[C@@]21C,T/C,"dose: 0.9 mg/kg/injection, schedule: Q01DX011 (sc), vehicle: steriod suspending solution",68 % of control
same,T/C,"dose: 1.7 mg/kg/injection, schedule: Q01DX011 (sc), vehicle: steriod suspending solution",72 % of control
same,T/C,"dose: 3.5 mg/kg/injection, schedule: Q01DX011 (sc), vehicle: steriod suspending solution",76 % of control
same,T/C,"dose: 3.7 mg/kg/injection, schedule: Q01DX011 (sc), vehicle: steriod suspending solution",64 % of control
same,T/C,"dose: 7.0 mg/kg/injection, schedule: Q01DX011 (sc), vehicle: steriod suspending solution",106 % of control
same,T/C,"dose: 7.1 mg/kg/injection, schedule: Q01DX011 (sc), vehicle: steriod suspending solution",39 % of control
same,T/C,"dose: 7.5 mg/kg/injection, schedule: Q01DX011 (sc), vehicle: steriod suspending solution",50 % of control
same,T/C,"dose: 14.0 mg/kg/injection, schedule: Q01DX011 (sc), vehicle: steriod suspending solution",52 % of control
same,T/C,"dose: 14.3 mg/kg/injection, schedule: Q01DX011 (sc), vehicle: steriod suspending solution",44 % of control
same,T/C,"dose: 15.0 mg/kg/injection, schedule: Q01DX011 (sc), vehicle: steriod suspending solution",27 % of control and 33 % of control
same,T/C,"dose: 28.7 mg/kg/injection, schedule: Q01DX011 (sc), vehicle: steriod suspending solution",19 % of control and 26 % of control and 27 % of control
same,T/C,"dose: 30.0 mg/kg/injection, schedule: Q01DX011 (sc), vehicle: steriod suspending solution",13 % of control and 16 % of control
same,T/C,"dose: 57.5 mg/kg/injection, schedule: Q01DX011 (sc), vehicle: steriod suspending solution",3 % of control and 11 % of control and 17 % of control
same,T/C,"dose: 60.0 mg/kg/injection, schedule: Q01DX011 (sc), vehicle: steriod suspending solution",12 % of control
same,T/C,"dose: 115.0 mg/kg/injection, schedule: Q01DX011 (sc), vehicle: steriod suspending solution",5 % of control
O=C(O)CCC(=O)CCl,T/C,"dose: 34.0 mg/kg/injection, schedule: Q01DX011 (ip), vehicle: methylcellulose (MC)",46 % of control
CS(=O)(=O)OCC(=O)N1CCN(C(=O)COS(C)(=O)=O)CC1,T/C,[1],63 % of control
same,T/C,[2],67 % of control
Cc1ccccc1N=Nc1ccc(N=Nc2ccc(O)cc2)c(C)c1,T/C,"dose: 1.87 mg/kg/injection, schedule: Q01DX011 (ip), vehicle: methylcellulose (MC)",74 % of control
same,T/C,"dose: 1.87 mg/kg/injection, schedule: Q01DX011 (ip), vehicle: saline",77 % of control
same,T/C,"dose: 3.25 mg/kg/injection, schedule: Q01DX011 (ip), vehicle: methylcellulose (MC)",89 % of control
same,T/C,"dose: 3.25 mg/kg/injection, schedule: Q01DX011 (ip), vehicle: saline",101 % of control
same,T/C,"dose: 7.5 mg/kg/injection, schedule: Q01DX011 (ip), vehicle: methylcellulose (MC)",101 % of control
same,T/C,"dose: 7.5 mg/kg/injection, schedule: Q01DX011 (ip), vehicle: saline",68 % of control
same,T/C,[4],88 % of control
CCCCC(CCCC)(C(=O)OCC)C(=O)OCC,T/C,"dose: 40.6 mg/kg/injection, schedule: Q01DX011 (ip), vehicle: methylcellulose (MC)",65 % of control
same,T/C,"dose: 81.25 mg/kg/injection, schedule: Q01DX011 (ip), vehicle: methylcellulose (MC)",63 % of control
same,T/C,"dose: 162.5 mg/kg/injection, schedule: Q01DX011 (ip), vehicle: methylcellulose (MC)",52 % of control
CN(C)[C@@H]1C(=O)C(C(=O)NCN(CCCl)CCCl)=C(O)[C@@]2(O)C(=O)C3=C(O)c4c(O)cccc4[C@@](C)(O)[C@H]3C[C@@H]12,T/C,"dose: 0.5 mg/kg/injection, schedule: Q01DX011 (ip), vehicle: methylcellulose (MC)",111 % of control
same,T/C,"dose: 5.0 mg/kg/injection, schedule: Q01DX011 (ip), vehicle: methylcellulose (MC)",98 % of control
same,T/C,"dose: 10.0 mg/kg/injection, schedule: Q01DX011 (ip), vehicle: methylcellulose (MC)",44 % of control
same,T/C,[4],37 % of control and 60 % of control
same,T/C,"dose: 20.0 mg/kg/injection, schedule: Q01DX011 (ip), vehicle: methylcellulose (MC)",35 % of control
same,T/C,"dose: 60.0 mg/kg/injection, schedule: Q01DX011 (ip), vehicle: saline",36 % of control
CSc1nc(N)c(NC=O)c(=O)n1C,T/C,"dose: 25.0 mg/kg/injection, schedule: Q01DX011 (ip), vehicle: saline",118 % of control
same,T/C,"dose: 75.0 mg/kg/injection, schedule: Q01DX011 (ip), vehicle: saline",66 % of control
CC1CCCN(/N=N/c2nc3c([nH]2)c(=O)n(C)c(=O)n3C)C1 (centres undefined),T/C,[1],66 % of control
same,T/C,[2],61 % of control
Cn1cnc2nc[nH]c2c1=O,T/C,"dose: 31.2 mg/kg/injection, schedule: Q01DX011 (ip), vehicle: carboxymethylcellulose (CMC)",95 % of control
same,T/C,"dose: 62.5 mg/kg/injection, schedule: Q01DX011 (ip), vehicle: carboxymethylcellulose (CMC)",99 % of control
same,T/C,"dose: 125.0 mg/kg/injection, schedule: Q01DX011 (ip), vehicle: carboxymethylcellulose (CMC)",108 % of control
same,T/C,"dose: 250.0 mg/kg/injection, schedule: Q01DX011 (ip), vehicle: carboxymethylcellulose (CMC)",116 % of control
CN(C)N=Nc1ccc(-c2ccc(N=NN(C)C)cc2)cc1,T/C,"dose: 17.5 mg/kg/injection, schedule: Q01DX011 (ip), vehicle: other",92 % of control
same,T/C,"dose: 31.2 mg/kg/injection, schedule: Q01DX011 (ip), vehicle: other",56 % of control
same,T/C,"dose: 35.0 mg/kg/injection, schedule: Q01DX011 (ip), vehicle: other",72 % of control
same,T/C,"dose: 50.0 mg/kg/injection, schedule: Q01DX011 (ip), vehicle: water",70 % of control
same,T/C,"dose: 62.5 mg/kg/injection, schedule: Q01DX011 (ip), vehicle: other",46 % of control
same,T/C,"dose: 70.0 mg/kg/injection, schedule: Q01DX011 (ip), vehicle: other",75 % of control
same,T/C,"dose: 100.0 mg/kg/injection, schedule: Q01DX011 (ip), vehicle: water",39 % of control
same,T/C,[3],32 % of control
same,T/C,"dose: 140.0 mg/kg/injection, schedule: Q01DX011 (ip), vehicle: other",40 % of control
same,T/C,"dose: 150.0 mg/kg/injection, schedule: Q01DX011 (ip), vehicle: water",46 % of control
same,T/C,"dose: 200.0 mg/kg/injection, schedule: Q01DX011 (ip), vehicle: water",61 % of control
CC(=O)N[C@H]1CC[C@H]2[C@@H]3CCC4=CC(=O)CC[C@]4(C)[C@H]3CC[C@]12C,T/C,"dose: 5.0 mg/kg/injection, schedule: Q01DX011 (sc), vehicle: steriod suspending solution",99 % of control
same,T/C,"dose: 50.0 mg/kg/injection, schedule: Q01DX011 (sc), vehicle: steriod suspending solution",111 % of control
same,T/C,"dose: 100.0 mg/kg/injection, schedule: Q01DX011 (sc), vehicle: steriod suspending solution",89 % of control

# Source: PubChem BioAssay AID180 (DTP/NCI, 2004)
